Measured values published in publication PMC5357639 (Frontiers in Chemistry, 2017).
Where a SMILES comes first, the peptide text is derived from it. The star is where a group is joined. Orn(α-tetramethylguanidino) = CN(C)C(=N[C@@H](CCCN)C(=O)*)N(C)C

Assay: Peptide recovery in spiked blood and organ homogenates
Assay type: in vitro ADME, NMRI mice
Settings: LC-MS MRM, mean n = 3
Procedure: plasma samples and organ homogenates relative to equally concentrated peptide solutions in pure w ater. Concentrations of samples below the LOQ but still detectable were set to the value of the LOD, whereas signals with peak hei ghts below the LOD were set to 0 µg/m L.
Method M3: Recovery rates in plasma and organ homogenates
Li -heparin blood samples obtained from untreated NMRI mice were spiked with Api88 or Api137 (final concentrations: 2.5 or 10 µ g/ m L), incubated (10 min, RT), and centrifuged (2,000x g, 3 min, RT) to obtain plasma. […]
500 µ L, 0.2 or 2 µg/m L, l iver: 500 µ L, 1 or 2.5 µ g/m L, kidne ys: 500 µ L, 20 or 60 µg/m L). […] Recoveries were calculated b y assumin g a total blood (plasma) volume of 75 (25) m L per k g mouse weight 3 and that the measured organ weight (in g) corresponds to the organ volume (in m L). […]
Apidaecin peptides were selectively and sensitively quantified based on the methods established for oncocins Onc72 and Onc112 (Sch midt R. et al J AC 2016). […]
Table S12. Recover y rates of Api88 and Api137 determined in plasma and organ homogenates (n = 3) collected from untreated NMRI mice. […]
500 µ L, 1 or 2.5 µg/m L, kidneys: 500 µ L, 20 o r 60 µg/m L) were added p rior to homogenization and centrifugation. […] The total peptide amount in mice was calculated from the recover y rates shown […]

For `CC[C@H](C)[C@H](NC(=O)[C@H](Cc1ccc(O)cc1)NC(=O)[C@@H](NC(=O)[C@@H]1CCCN1C(=O)[C@H](CCCNC(=N)N)NC(=O)[C@H](CC(N)=O)NC(=O)[C@H](CC(N)=O)NC(=O)[C@H](CCCN)N=C(N(C)C)N(C)C)C(C)C)C(=O)N1CCC[C@H]1C(=O)N[C@@H](CCCNC(=N)N)C(=O)N1CCC[C@H]1C(=O)N[C@@H](CCCNC(=N)N)C(=O)N1CCC[C@H]1C(=O)N1CCC[C@H]1C(=O)N[C@@H](Cc1c[nH]cn1)C(=O)N1CCC[C@H]1C(=O)N[C@@H](CCCNC(=N)N)C(=O)N[C@@H](CC(C)C)C(=O)O` [Api137] ({Orn(α-tetramethylguanidino)}-NNRPVYIPRPRPPHPRL-OH), the “Recovery rate, Kidney, low concentration” value (peptide 20 µg/mL in 500 µL PBS with protease inhibitor added prior to homogenization) was 3.5 ± 0.4% and the “Recovery rate, Kidney, high concentration” value (peptide 60 µg/mL in 500 µL PBS with protease inhibitor added prior to homogenization) was 2.7 ± 0.7%.
